# Starred links: 1 amine or outer side, 2 acyl side, 3 side chain; linkers in the order of their positions; H or OH if unused. Positions of bridges follow the written chain, without caps; N, C: chain ends. Groups on a side chain read outwards from the residue. Chains are numbered I, II in the order given. No end group written: not given here. *: point of attachment. Phe(Nα-CONH2) = NC(=O)N[C@@H](Cc1ccccc1)C(=O)*; C20 diacid = O=C(O)CCCCCCCCCCCCCCCCCCC(=O)*; C18 diacid = O=C(O)CCCCCCCCCCCCCCCCC(=O)*; C16 diacid = O=C(O)CCCCCCCCCCCCCCC(=O)*; NMe2Phe = CN(C)[C@@H](Cc1ccccc1)C(=O)*; γGlu = O=C(O)[C@H](CCC(=O)[*:2])N[*:1]; X1 = CCN(CC)[C@@H](Cc1ccccc1)C(=O)*; Hydantoyl = NC(=O)NCC(=O)*; AEEA = NCCOCCOCC(=O)O; Me2Gly = CN(C)CC(=O)*; X2 = CCN(CC)CC(=O)*
# Experiments:
# [1] = Chemical stability of insulin analogues formulated in lipid formulations (UPLC purity, SEC HMWP); type: physicochemical; conditions: lipid formulation, 25° C.
# Procedure: Chemical stability of insulin analogues formulated in lipid formulations was assessed according to the protocol described here.
# Composition of the formulation: […]
# Insulin to be tested (75 μM)
# The insulin to be tested (lyophilised from pH 7.5) is dissolved in propylenglycol in the dark for 16 hours. Diglycerol caprylate is added ad the mixture is stirred. Tween 20 is added and the mixture is stirred for 5 minutes. The mixture is gently agitated until it is homogeneous.
# Extraction-mix: 1-butanol+0.1% (w/w) Tween80, 0.1M Na2HPO4/NaH2PO4 pH 7.0 • 1. The formulations are allowed to reach room temperature. • 2. To each Eppendorf tube 20 μl of the formulations are added. • 3. Add 490 μl 1-butanol followed by addition of 990 μl of the phosphate buffer. Vortex and incubate at RT for 30 min. • 4. Vortex again and centrifuge at RT at 14000 rpm for 20 min. Analyse the bottom aqueous phase for purity and HMWP formation.
# Alternatively another extraction method can be used: • 1. The formulations are allowed to reach room temperature. • 2. To each Eppendorf tube 50 μl of the formulations are added. • 3. Add 950 μl of extraction buffer. Vortex well. Immediately after, load 800 μl (2×400 μl) for purification on the spin column. See spin protocol below. Ion Exchange on Q Spin Columns from Sartorius
# (In the following all spin steps are for 5 min at 2000×g.) • 1. Apply 400 μl equilibration buffer to each spin column, and spin. Discard the flow-through. • 2. Apply 2×400 μl of each extracted sample. Spin the column between each application. Discard the flow-through. • 3. Apply 400 μl washing buffer to wash each spin column, and spin. Discard the wash. • 4. Apply 400 μl elution buffer to each spin column, and spin. Analyse the elution for purity and HMWP formation
# Column: Waters BEH Shield RP18 UPLC column (2.1×100 mm, 1.7 μm)
# Buffer A: 0.09M di-ammonium hydrogen phosphate pH 3.0, 10% (v/v) acetonitrile
# Buffer B: 90% acetonitrile.
# Column: Waters Insulin HMWP SEC column
# Buffer: 500 mM NaCl, 10 mM NaH2PO4, 5 mM H3PO4, 50% (v/v) 2-propanol
# [2] = target: T1, human insulin receptor (IR-A) (Homo sapiens, UniProt P06213); test: Insulin receptor affinity, SPA antibody capture assay, 0% HSA; type: binding; conditions: relative to affinity of human insulin
# T1 sequence (P06213 28-746 isoform P06213-2 limits assumed): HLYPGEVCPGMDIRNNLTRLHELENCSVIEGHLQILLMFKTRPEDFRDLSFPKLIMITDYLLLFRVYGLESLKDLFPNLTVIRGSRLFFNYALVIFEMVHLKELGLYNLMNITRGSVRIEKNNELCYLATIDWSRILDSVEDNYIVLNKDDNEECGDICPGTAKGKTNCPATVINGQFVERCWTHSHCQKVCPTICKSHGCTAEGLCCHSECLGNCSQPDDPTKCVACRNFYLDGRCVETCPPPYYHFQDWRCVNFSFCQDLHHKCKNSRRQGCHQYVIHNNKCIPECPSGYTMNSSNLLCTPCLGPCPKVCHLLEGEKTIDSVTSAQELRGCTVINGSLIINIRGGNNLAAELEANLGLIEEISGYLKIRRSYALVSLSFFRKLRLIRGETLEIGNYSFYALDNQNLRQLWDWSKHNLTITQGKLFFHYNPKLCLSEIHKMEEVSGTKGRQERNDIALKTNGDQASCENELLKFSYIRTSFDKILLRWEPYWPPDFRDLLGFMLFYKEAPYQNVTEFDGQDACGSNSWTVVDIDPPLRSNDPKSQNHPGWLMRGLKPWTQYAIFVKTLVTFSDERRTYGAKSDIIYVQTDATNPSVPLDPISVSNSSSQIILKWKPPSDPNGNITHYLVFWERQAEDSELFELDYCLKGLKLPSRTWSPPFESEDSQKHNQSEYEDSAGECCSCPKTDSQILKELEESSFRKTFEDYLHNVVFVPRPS
# T1 sequence (P06213 763-1382 partner limits assumed): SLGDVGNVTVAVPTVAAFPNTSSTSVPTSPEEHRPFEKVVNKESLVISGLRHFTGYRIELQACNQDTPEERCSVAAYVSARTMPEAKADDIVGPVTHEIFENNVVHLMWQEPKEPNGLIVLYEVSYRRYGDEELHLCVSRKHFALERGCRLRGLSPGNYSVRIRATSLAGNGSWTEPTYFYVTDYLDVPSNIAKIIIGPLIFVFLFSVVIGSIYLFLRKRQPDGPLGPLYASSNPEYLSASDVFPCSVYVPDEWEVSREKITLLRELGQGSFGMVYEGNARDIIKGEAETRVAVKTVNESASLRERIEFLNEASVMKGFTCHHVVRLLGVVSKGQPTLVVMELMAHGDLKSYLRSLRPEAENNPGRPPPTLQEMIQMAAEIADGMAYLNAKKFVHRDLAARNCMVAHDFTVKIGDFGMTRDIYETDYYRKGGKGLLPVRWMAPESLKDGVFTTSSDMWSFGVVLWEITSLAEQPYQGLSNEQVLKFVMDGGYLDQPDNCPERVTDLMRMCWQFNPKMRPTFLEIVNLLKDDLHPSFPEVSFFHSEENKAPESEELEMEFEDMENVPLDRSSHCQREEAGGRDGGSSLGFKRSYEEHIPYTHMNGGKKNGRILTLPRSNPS
# Procedure: (§1) The affinity of the acylated insulin analogues of this invention for the human insulin receptor is determined by a SPA assay (Scintillation Proximity Assay) microtiterplate antibody capture assay. SPA-PVT antibody-binding beads, anti-mouse reagent (Amersham Biosciences, Cat No. PRNQ0017) are mixed with 25 ml of binding buffer (100 mM HEPES pH 7.8; 100 mM sodium chloride, 10 mM MgSO4, 0.025% Tween-20). Reagent mix for a single Packard Optiplate (Packard No. 6005190) is composed of 2.4 μl of a 1:5000 diluted purified recombinant human insulin receptor (either with or without exon 11), an amount of a stock solution of A14Tyr[^125I]-human insulin corresponding to 5000 cpm per 100 μl of reagent mix, 12 μl of a 1:1000 dilution of F12 antibody, 3 ml of SPA-beads and binding buffer to a total of 12 ml. A total of 100 μl reagent mix is then added to each well in the Packard Optiplate and a dilution series of the insulin derivative is made in the Optiplate from appropriate samples. The samples are then incubated for 16 hours while gently shaken. The phases are the then separated by centrifugation for 1 min and the plates counted in a Topcounter. The binding data were fitted using the nonlinear regression algorithm in the GraphPad Prism 2.01 (GraphPad Software, San Diego, Calif.) and affinities are expressed relative (in percentage (%)) to the affinity of human insulin.
# [3] = target: T1, human insulin receptor (IR-A); conditions: relative to affinity of human insulin; […] HSA in binding buffer
# Procedure: as §1
# A related assay is also used wherein the binding buffer also contains 1.5% HSA in order to mimic physiological conditions
# [4] = test system: duodenum lumen enzymes; conditions: pH 7.4
# Procedure: Degradation of insulin analogs using duodenum lumen enzymes (prepared by filtration of duodenum lumen content) from SPD rats. The assay is performed by a robot in a 96 well plate (2 ml) with 16 wells available for insulin analogs and standards. Insulin analogs ˜15 μM are incubated with duodenum enzymes in 100 mM Hepes, pH=7.4 at 37° C., samples are taken after 1, 15, 30, 60, 120 and 240 min and reaction quenched by addition of TFA. Intact insulin analogs at each point are determined by RP-HPLC. Degradation half time is determined by exponential fitting of the data and normalized to half time determined for the reference insulins, A14E, B25H, desB30 human insulin or human insulin in each assay. The amount of enzymes added for the degradation is such that the half time for degradation of the reference insulin is between 60 min and 180 min.
substance,measurement,setting,value
"A1(N^αDiglycolyl), A14E, B1(N^αdiglycolyl), B25H, desB27, B29K(N^εoctadecanedioyl-gGlu-2xOEG), desB30 human insulin [Example 59]",HMWP formed (%) 2 weeks,[1],0.1%
same,Impurities formed (%) 2 weeks,[1],2.4%
"I: NMe2Phe-VNQHLCGSHLVEALHLVCGERGFHYTPK([AEEA-AEEA-γGlu-C20 diacid]) / II: Me2Gly-IVEQCCTSICSLEQLENYCN (disulfide I:6-II:6, I:18-II:19, II:5-II:10) [Example 7, A1(N^α,N^α-Dimethyl), A14E, B1(NP,N^α-dimethyl), B16H, B25H, B29K(N^εeicosanedioyl-gGlu-2xOEG), desB30 human insulin]",Relative IR-A affinity (@ 0% HSA) (%),[2],0.5%
same,Relative IR-A affinity (@ […] HSA) (%)e,[3],0.03%
same,"Duodenum degradation. Relative stability vs. A14E, B25H, desB30 human insulin",[4],0.4
"I: NMe2Phe-VNQHLCGSHLVEALYLVCGERGFHYPK([γGlu-C16 diacid]) / II: Me2Gly-IVEQCCTSICSLEQLENYCN (disulfide I:6-II:6, I:18-II:19, II:5-II:10) [Example 8, A1G(N^α,N^α-Dimethyl), A14E, B1F(N^α,N^α-dimethyl), B25H, desB27, B29K(N^εhexadecanedioyl-gGlu), desB30 human insulin]",Relative IR-A affinity (@ 0% HSA) (%),[2],2.7%
same,Relative IR-A affinity (@ […] HSA) (%)e,[3],0.18%
same,"Duodenum degradation. Relative stability vs. A14E, B25H, desB30 human insulin",[4],6.8
"I: NMe2Phe-VNQHLCGSHLVEALYLVCGERGFHYPK([γGlu-C18 diacid]) / II: Me2Gly-IVEQCCTSICSLEQLENYCN (disulfide I:6-II:6, I:18-II:19, II:5-II:10) [Example 4, A1(N^α, N^α-Dimethyl), A14E, B1(N^α, N^α-dimethyl), B25H, desB27, B29K(N^εoctadecanedioyl-gGlu), desB30 human insulin]",Relative IR-A affinity (@ 0% HSA) (%),[2],1.7%
same,Relative IR-A affinity (@ […] HSA) (%)e,[3],0.03%
same,"Duodenum degradation. Relative stability vs. A14E, B25H, desB30 human insulin",[4],8.6
"I: X1-VNQHLCGSHLVEALYLVCGERGFHYTPK([AEEA-AEEA-γGlu-C18 diacid]) / II: X2-IVEQCCTSICSLEQLENYCN (disulfide I:6-II:6, I:18-II:19, II:5-II:10) [Example 2, A1(N^α,N^α-Diethyl), A14E, B1(N^α, N^α-diethyl), B25H, B29K(N^εOctadecanedioyl-gGlu-2xOEG), desB30 human insulin]",Relative IR-A affinity (@ 0% HSA) (%),[2],1.7%
same,Relative IR-A affinity (@ […] HSA) (%)e,[3],0.05%
same,HMWP formed (%) 2 weeks,[1],0.0%
same,Impurities formed (%) 2 weeks,[1],1.7%
same,HMWP formed (%) 4 weeks,[1]; 4 weeks,0.1%
same,Impurities formed (%) 4 weeks,[1]; 4 weeks,3.2%
same,"Duodenum degradation. Relative stability vs. A14E, B25H, desB30 human insulin",[4],0.8
"I: {Phe(Nα-CONH2)}-VNQHLCGSHLVEALHLVCGERGFFYPK([AEEA-AEEA-γGlu-C20 diacid]) / II: Hydantoyl-IVEQCCTSICSLEQLENYCN (disulfide I:6-II:6, I:18-II:19, II:5-II:10) [Example 30, A1G(N^αcarbamoyl), A14E, B1F(N^αcarbamoyl), B16H, desB27, B29K(N^εeicosanedioyl-gGlu-2xOEG), desB30 human insulin]","Duodenum degradation. Relative stability vs. A14E, B25H, desB30 human insulin",[4],4.9
"I: {Phe(Nα-CONH2)}-VNQHLCGSHLVEALYLVCGERGFFYPK([AEEA-AEEA-γGlu-C16 diacid]) / II: Hydantoyl-IVEQCCTSICSLEQLENYCN (disulfide I:6-II:6, I:18-II:19, II:5-II:10) [Example 20]",Relative IR-A affinity (@ 0% HSA) (%),[2],4.7%
same,Relative IR-A affinity (@ […] HSA) (%)e,[3],0.48%
same,"Duodenum degradation. Relative stability vs. A14E, B25H, desB30 human insulin",[4],1.8
"I: {Phe(Nα-CONH2)}-VNQHLCGSHLVEALYLVCGERGFFYPK([AEEA-AEEA-γGlu-C20 diacid]) / II: Hydantoyl-IVEQCCTSICSLEQLENYCN (disulfide I:6-II:6, I:18-II:19, II:5-II:10) [Example 29, A1G(N^αcarbamoyl), A14E, B1F(N^αcarbamoyl), desB27, B29K(N^εeicosanedioyl-gGlu-2xOEG), desB30 human insulin]",Relative IR-A affinity (@ 0% HSA) (%),[2],2.6%
same,Relative IR-A affinity (@ […] HSA) (%)e,[3],0.20%
same,"Duodenum degradation. Relative stability vs. A14E, B25H, desB30 human insulin",[4],3.0
"I: {Phe(Nα-CONH2)}-VNQHLCGSHLVEALYLVCGERGFFYPK([γGlu-C16 diacid]) / II: Hydantoyl-IVEQCCTSICSLEQLENYCN (disulfide I:6-II:6, I:18-II:19, II:5-II:10) [Example 19, A1G(N(alpha)carbamoyl), A14E, B1F(N(alpha)carbamoyl), desB27, B29K(N(eps)hexadecanedioyl-gGlu), desB30 human insulin]",Relative IR-A affinity (@ 0% HSA) (%),[2],5.0%
same,Relative IR-A affinity (@ […] HSA) (%)e,[3],0.14%
same,"Duodenum degradation. Relative stability vs. A14E, B25H, desB30 human insulin",[4],3.0
"I: {Phe(Nα-CONH2)}-VNQHLCGSHLVEALYLVCGERGFFYPK([γGlu-C18 diacid]) / II: Hydantoyl-IVEQCCTSICSLEQLENYCN (disulfide I:6-II:6, I:18-II:19, II:5-II:10) [Example 23, A1(N^αCarbamoyl), A14E, B1(N^αCarbamoyl), desB27, B29K(N^εoctadecanedioyl-gGlu), desB30 human insulin]",Relative IR-A affinity (@ 0% HSA) (%),[2],2.7%
same,Relative IR-A affinity (@ […] HSA) (%)e,[3],0.04%
same,"Duodenum degradation. Relative stability vs. A14E, B25H, desB30 human insulin",[4],6.6
"I: {Phe(Nα-CONH2)}-VNQHLCGSHLVEALYLVCGERGFFYPK([γGlu-C20 diacid]) / II: Hydantoyl-IVEQCCTSICSLEQLENYCN (disulfide I:6-II:6, I:18-II:19, II:5-II:10) [Example 21]",Relative IR-A affinity (@ 0% HSA) (%),[2],1.3%
same,Relative IR-A affinity (@ […] HSA) (%)e,[3],0.07%
same,"Duodenum degradation. Relative stability vs. A14E, B25H, desB30 human insulin",[4],6.2
"I: {Phe(Nα-CONH2)}-VNQHLCGSHLVEALYLVCGERGFHYPK([AEEA-AEEA-γGlu-C18 diacid]) / II: Hydantoyl-IVEQCCTSICSLEQLENYCN (disulfide I:6-II:6, I:18-II:19, II:5-II:10) [Example 18, A1(N^αCarbamoyl), A14E, B1(N^αCarbamoyl), B25H, desB27, B29K(N^εoctadecandioyl-gGlu-2xOEG), desB30 human insulin]",Relative IR-A affinity (@ 0% HSA) (%),[2],0.4%
same,Relative IR-A affinity (@ […] HSA) (%)e,[3],0.04%
same,"Duodenum degradation. Relative stability vs. A14E, B25H, desB30 human insulin",[4],5.6
"I: {Phe(Nα-CONH2)}-VNQHLCGSHLVEALYLVCGERGFHYTPK([γGlu-C16 diacid]) / II: Hydantoyl-IVEQCCTSICSLEQLENYCN (disulfide I:6-II:6, I:18-II:19, II:5-II:10) [Example 13, A1(N^αCarbamoyl), A14E, B1(N^αCarbamoyl), B25H, B29K(N^εhexadecanedioyl-gGlu), desB30 human insulin]",Relative IR-A affinity (@ 0% HSA) (%),[2],0.3%
same,Relative IR-A affinity (@ […] HSA) (%)e,[3],0.02%
same,"Duodenum degradation. Relative stability vs. A14E, B25H, desB30 human insulin",[4],1.5
"I: {Phe(Nα-CONH2)}-VNQHLCGSHLVEALYLVCGERGFHYTPK([γGlu-C20 diacid]) / II: Hydantoyl-IVEQCCTSICSLEQLENYCN (disulfide I:6-II:6, I:18-II:19, II:5-II:10) [Example 14, A1(N^αCarbamoyl), A14E, B1(N^αCarbamoyl), B25H, B29K(Feicosanedioyl-gGlu), desB30 human insulin]",Relative IR-A affinity (@ 0% HSA) (%),[2],0.2%
same,Relative IR-A affinity (@ […] HSA) (%)e,[3],0.00%
same,"Duodenum degradation. Relative stability vs. A14E, B25H, desB30 human insulin",[4],0.9

# Source: patent US20140315797A1, “Novel N-Terminally Modified Insulin Derivatives” (priority 2010, published 2014)
